Experimental findings from patent US20130029961A1, “Substituted Heterocyclic Aza Compounds” (Gruenenthal GmbH, priority 2011, published 2013) are described below.

Structures are written as SMILES.

T1 sequence (Q8NER1 whole entry): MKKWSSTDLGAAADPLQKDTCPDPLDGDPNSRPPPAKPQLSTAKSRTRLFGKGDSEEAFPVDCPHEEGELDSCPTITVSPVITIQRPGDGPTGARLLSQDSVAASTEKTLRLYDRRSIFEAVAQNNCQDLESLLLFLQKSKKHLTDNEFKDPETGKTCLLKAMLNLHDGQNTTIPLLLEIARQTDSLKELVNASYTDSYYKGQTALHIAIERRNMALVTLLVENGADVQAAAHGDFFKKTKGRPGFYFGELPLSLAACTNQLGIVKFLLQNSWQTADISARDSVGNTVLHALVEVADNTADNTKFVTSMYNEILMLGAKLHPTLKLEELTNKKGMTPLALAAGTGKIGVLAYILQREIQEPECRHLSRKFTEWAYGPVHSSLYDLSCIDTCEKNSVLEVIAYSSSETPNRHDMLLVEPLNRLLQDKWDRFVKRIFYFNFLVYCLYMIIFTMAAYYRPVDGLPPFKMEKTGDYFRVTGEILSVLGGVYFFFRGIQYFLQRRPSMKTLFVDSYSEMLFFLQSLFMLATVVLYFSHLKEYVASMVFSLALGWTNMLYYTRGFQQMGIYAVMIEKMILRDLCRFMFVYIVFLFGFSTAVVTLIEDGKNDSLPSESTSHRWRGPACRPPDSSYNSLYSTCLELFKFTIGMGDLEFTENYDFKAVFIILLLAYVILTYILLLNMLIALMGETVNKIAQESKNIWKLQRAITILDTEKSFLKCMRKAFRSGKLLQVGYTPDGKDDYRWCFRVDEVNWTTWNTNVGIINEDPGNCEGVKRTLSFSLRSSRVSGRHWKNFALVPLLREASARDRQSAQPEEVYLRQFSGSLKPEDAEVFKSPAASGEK

One assay addresses T1, TRPV1 human (Homo sapiens, UniProt Q8NER1).
T1 construct: expressed in transfected cells; host or cells: CHO K1 cells
As to the kind of experiment: Functional FLIPR Ca2+ influx assay on vanilloid receptor 1 (VR1/TRPV1), capsaicin stimulus. Type of assay: cell-based. Also on record: key to TRPV1 human (f) CAP, agonist (AG): AG denotes agonist. The conditions noted are these: functional (f), vs capsaicin (CAP); Ki from IC50 by Cheng-Prusoff.
With `O=C(Cc1ccccn1)NCc1ccc(C(F)(F)F)nc1-c1cccc(Cl)c1` [compound 5], the affinity, expressed as Ki, was 91 nM.

As to `O=C(Cc1ccccn1)NCc1ccc(C(F)(F)F)nc1N1CCCC1` [compound 10], affinity was put at a Ki of 73 nM.

Regarding `CC1CCN(c2nc(C(F)(F)F)ccc2CNC(=O)Cc2ccccn2)CC1` [compound 13], affinity was put at a Ki of 7 nM.

Turning to `CC1CCN(c2nc(C(F)(F)F)ccc2CNC(=O)C(C)c2ccccn2)CC1` (stereo not drawn) [compound 14], the affinity, expressed as Ki, was 45 nM.

As for `CC1CCN(c2nc(C(F)(F)F)ccc2CNC(=O)Nc2ccccn2)CC1` [compound 19], the Ki (commonly the dissociation constant of the complex between target and ligand, obtained from inhibition or displacement) is 35 nM.

Molecule `CC1CCN(c2nc(C(F)(F)F)ccc2CNC(=O)Cc2cccnc2)CC1` [compound 31] gave a Ki of 6 nM.

For the molecule `CC1CCN(c2nc(C(F)(F)F)ccc2CNC(=O)C(C)c2cccnc2)CC1` (stereo not drawn) [compound 32], the Ki was 10 nM.

With `CC1CCN(c2nc(C(F)(F)F)ccc2CNC(=O)Cc2ccncn2)CC1` [compound 39], the Ki worked out at 11 nM.

In turn, `CC1CCN(c2nc(C(F)(F)F)ccc2CNC(=O)Cc2cnccn2)CC1` [compound 40] had a Ki of 107 nM.

Consider `CC1CCN(c2nc(C(F)(F)F)ccc2CNC(=O)Nc2ccnnc2)CC1` [compound 42], for which the Ki stood at 9 nM.

Regarding `CC1CCN(c2nc(C(F)(F)F)ccc2CNC(=O)Cc2cncnc2)CC1` [compound 47], the Ki came out at 38 nM.

Consider `CC1CCN(c2nc(C(F)(F)F)ccc2CNC(=O)Nc2ccc(CO)nc2)CC1` [compound 55], for which the Ki turned out to be 11 nM.

Regarding `CC1CCN(c2nc(C(F)(F)F)ccc2CNC(=O)Nc2cnc(CCS(C)(=O)=O)c(F)c2)CC1` [compound 67], the Ki was 6 nM.

The molecule `CC1CCN(c2nc(C(F)(F)F)ccc2CNC(=O)C(C)c2ccc(C(=O)Nc3ccccc3)nc2)CC1` (stereo not drawn) [compound 75] displayed an inhibition constant (Ki) of 57 nM.

`CC1CCN(c2nc(C(F)(F)F)ccc2CNC(=O)C(C)c2cnc(C(=O)Nc3ccccc3)nc2)CC1` (stereo not drawn) [compound 76] came in with a Ki of 77 nM.

The molecule `CCNc1nc(C(F)(F)F)ccc1CNC(=O)C(C)c1cnc(C(=O)Nc2ccc(F)cc2)nc1` (stereo not drawn) [compound 77] showed an inhibition constant (Ki) of 80 nM.

Turning to `CC(C(=O)NCc1ccc(C(F)(F)F)nc1N1CCCC1)c1cnc(C(=O)Nc2ccc(F)cc2)nc1` (stereo not drawn) [compound 78], the Ki came out at 42 nM.

Take `CC(C(=O)NCc1ccc(C(F)(F)F)nc1N1CCCCC1)c1cnc(C(=O)Nc2ccc(F)cc2)nc1` (stereo not drawn) [compound 79]: affinity was put at a Ki of 11 nM.

Molecule `CC(C(=O)NCc1ccc(C(F)(F)F)nc1N1CCOCC1)c1cnc(C(=O)Nc2ccc(F)cc2)nc1` (stereo not drawn) [compound 80] showed a Ki of 60 nM.

The molecule `Cc1cccc(-c2nc(C(F)(F)F)ccc2CNC(=O)C(C)c2cnc(C(=O)Nc3ccc(F)cc3)nc2)c1` (stereo not drawn) [compound 81] returned a Ki of 5 nM.

On to `CC1CCN(c2nc(C(F)(F)F)ccc2CNC(=O)C(C)c2ccc(N)c(Br)n2)CC1` (stereo not drawn) [compound 84], for which the inhibition constant Ki was 50 nM.

Molecule `CC1CCN(c2nc(C(F)(F)F)ccc2CNC(=O)C(C)c2ccc(NCCO)nc2)CC1` (stereo not drawn) [compound 85] showed a Ki of 2 nM.

`CC1CCN(c2nc(C(F)(F)F)ccc2CNC(=O)Nc2ccc(NCCO)nc2)CC1` [compound 86]: the Ki was determined as 1 nM.

The molecule `COCCNc1ccc(C(C)C(=O)NCc2ccc(C(F)(F)F)nc2N2CCC(C)CC2)cn1` (stereo not drawn) [compound 87] came in with a Ki of 27 nM.

For the molecule `COCCNc1ccc(NC(=O)NCc2ccc(C(F)(F)F)nc2N2CCC(C)CC2)cn1` [compound 88], the Ki was determined as 16 nM.

Regarding `CC1CCN(c2nc(C(F)(F)F)ccc2CNC(=O)C(C)c2ccc(N(C)CCO)nc2)CC1` (stereo not drawn) [compound 89], the Ki amounted to 53 nM.

For the molecule `CC1CCN(c2nc(C(F)(F)F)ccc2CNC(=O)Nc2ccc(N(C)CCO)nc2)CC1` [compound 90], the inhibitory constant (Ki) amounted to 19 nM.

As for `CC1CCN(c2nc(C(F)(F)F)ccc2CNC(=O)C(C)c2cnc(NS(C)(=O)=O)c(F)c2)CC1` (stereo not drawn) [compound 96], the Ki turned out to be 1 nM.

For the molecule `COc1cc(C(C)C(=O)NCc2ccc(C(F)(F)F)nc2N2CCC(C)CC2)cnc1NS(C)(=O)=O` (stereo not drawn) [compound 97], the inhibition constant Ki worked out at 2 nM.

Turning to `CC1CCN(c2nc(C(F)(F)F)ccc2CNC(=O)C(C)c2ccc(NC(=O)c3ccccc3)nc2)CC1` (stereo not drawn) [compound 98], the affinity, expressed as Ki, was 63 nM.

As to `CC1CCN(c2nc(C(F)(F)F)ccc2CNC(=O)C(C)c2ccc(NC(=O)c3ccc(Cl)cc3)nc2)CC1` (stereo not drawn) [compound 99], the affinity, expressed as Ki, was 9 nM.

With `CC1CCN(c2nc(C(F)(F)F)ccc2CNC(=O)Nc2cnc(N(C)C)c(C(F)(F)F)c2)CC1` [compound 104], affinity was put at a Ki of 9 nM.

With `CC1CCN(c2nc(C(F)(F)F)ccc2CNC(=O)Nc2ccc(N3CCC3)nc2)CC1` [compound 105], the affinity corresponds to a Ki of 27 nM.

In turn, `COc1cc(NC(=O)NCc2ccc(C(F)(F)F)nc2N2CCC(C)CC2)cnc1N1CCC1` [compound 107] showed a Ki of 81 nM.

For the molecule `CC1CCN(c2nc(C(F)(F)F)ccc2CNC(=O)Nc2ccc(N3CC(O)C3)nc2)CC1` [compound 108], the Ki worked out at 12 nM.

`CC1CCN(c2nc(C(F)(F)F)ccc2CNC(=O)Nc2ccc(N3CCCC3)nc2)CC1` [compound 114] returned a Ki of 12 nM.

On to `COc1cc(NC(=O)NCc2ccc(C(F)(F)F)nc2N2CCC(C)CC2)cnc1N1CCCC1` [compound 116], for which the affinity, expressed as Ki, was 78 nM.

Turning to `CC1CCN(c2nc(C(F)(F)F)ccc2CNC(=O)Nc2ccc(N3CC[C@H](O)C3)nc2)CC1` [compound 117], the Ki is 9 nM.

Turning to `CC1CCN(c2nc(C(F)(F)F)ccc2CNC(=O)Nc2ccc(N3CC[C@@H](O)C3)nc2)CC1` [compound 118], affinity was put at a Ki of 10 nM.

Regarding `COc1ccc(C(C)C(=O)NCc2ccc(C(F)(F)F)nc2N2CCC(C)CC2)cn1` (stereo not drawn) [compound 120], affinity was put at a Ki of 44 nM.

In turn, `CC1CCN(c2nc(C(F)(F)F)ccc2CNC(=O)Nc2ccc(OCCO)nc2)CC1` [compound 123] gave a Ki of 11 nM.

For `COCCOc1ccc(NC(=O)NCc2ccc(C(F)(F)F)nc2N2CCC(C)CC2)cn1` [compound 124], the Ki came to 4 nM.

`CC1CCN(c2nc(C(F)(F)F)ccc2CNC(=O)Nc2cncc(CO)c2)CC1` [compound 126] yielded a Ki of 26 nM.

Take `CC1CCN(c2nc(C(F)(F)F)ccc2CNC(=O)Nc2ccc(CO)cn2)CC1` [compound 127]: the affinity corresponds to a Ki of 61 nM.

As for `CC1CCN(c2nc(C(F)(F)F)ccc2CNC(=O)Nc2ccncc2CO)CC1` [compound 128], the Ki is 69 nM.

The molecule `CC1CCN(c2nc(C(F)(F)F)ccc2CNC(=O)Nc2ccc(C(O)CO)nc2)CC1` (stereo not drawn) [compound 129] registered an inhibitory constant (Ki) of 39 nM.

In turn, `O=C(NCc1ccc(C(F)(F)F)nc1-c1cccc(F)c1)Nc1ccc(NCCO)nc1` [compound 130] returned a Ki of 15 nM.

As for `O=C(NCc1ccc(C(F)(F)F)nc1-c1cncc(Cl)c1)Nc1ccc(NCCO)nc1` [compound 131], the Ki was 29 nM.

Staying with this assay, now noted: inhibition at 1 μM compound, capsaicin (CAP).
For the molecule `COCCN(C)c1ccc(NC(=O)NCc2ccc(C(F)(F)F)nc2N2CCC(C)CC2)cn1` [compound 91], the “TRPV1 human (f) CAP, inhibition (as a percentage) @ 1 μM” value was found to be 12% @ 1 μM.

The same assay, now with this note: inhibition at 5 μM compound, capsaicin (CAP).
For the molecule `O=C(Cc1ccccn1)NCc1ccc(C(F)(F)F)nc1-c1ccc(F)c(Cl)c1` [compound 6], the “TRPV1 human (f) CAP, inhibition (as a percentage) @ 5 μM” value came out at 48% @ 5 μM.

Staying with this assay, now noted: inhibition at 5 μM compound, capsaicin (CAP); read-out: TRPV1 human (f) CAP, inhibition (as a percentage) @ 5 μM.
Regarding `Cc1cccc(-c2nc(C(F)(F)F)ccc2CNC(=O)Cc2ccccn2)c1` [compound 7], the inhibition – broadly, the relative decrease from the control value, in per cent – at 5 µM is 18%.

Turning to `COc1cccc(-c2nc(C(F)(F)F)ccc2CNC(=O)Cc2ccccn2)c1` [compound 8], the inhibition at 5 µM was 39%.

Turning to `CCCCNc1nc(C(F)(F)F)ccc1CNC(=O)Cc1ccccn1` [compound 9], the inhibition at 5 µM was 23%.

Consider `O=C(Cc1ccccn1)NCc1ccc(C(F)(F)F)nc1N1CCOCC1` [compound 22], for which the inhibition at 5 µM is 32%.

Turning to `COCCOCc1nc(C(F)(F)F)ccc1CNC(=O)Cc1ccccn1` [compound 24], the inhibition at 5 µM was 13%.

Consider `CC1CCN(c2nc(C(F)(F)F)ccc2CNC(=O)Cc2ncccn2)CC1` [compound 41], for which the inhibition at 5 µM worked out at 39%.

In the case of `CC(C(=O)NCc1ccc(C(F)(F)F)nc1N1CCOCC1)c1ccc(NS(C)(=O)=O)nc1` (stereo not drawn) [compound 95], the inhibition at 5 µM worked out at 34%.

The same assay, now with this note: printed in the Ki column instead of a value.
For the molecule `CC1CCN(c2nc(C(F)(F)F)ccc2CNC(=O)Cc2ccncc2)CC1` [compound 38], the “TRPV1 human (f) CAP, agonist (AG)” value is reported as “AG”.

With `CC1CCN(c2nc(C(F)(F)F)ccc2CNC(=O)C(C)c2ccc(Cl)nc2)CC1` (stereo not drawn) [compound 49], the “TRPV1 human (f) CAP, agonist (AG)” value is “AG”.

For the molecule `CC1CCN(c2nc(C(F)(F)F)ccc2CNC(=O)C(C)c2ccc(C(N)=O)nc2)CC1` (stereo not drawn) [compound 74], the “TRPV1 human (f) CAP, agonist (AG)” value is “AG”.
